Test results: patent US20030166202A1, “P450 Monooxygenases of the cyp79 family” (priority 2000, published 2003)
Like-named read-outs stand apart in the source and are kept apart here.

How the values were obtained:
CYP79D1 = CYP79D1 (Manihot esculenta, UniProt Q9M7B8); settings: for inhibition of CYP79D1 val-oxime formation: reconstitution in presence of inhibitor
Procedure: Isolated, recombinant CYP79D1 is reconstituted and its catalytic activity determined in vitro using reaction mixtures with a total volume of 30 μl containing 2.5 pmol CYP79D1, 0.05 U NADPH P450-oxidoreductase (Benveniste et al, Biochem J 235: 365-373, 1986), 10.6 mM L-α-dioleyl phosphatidylcholine, 0.35 μCi [U-^14C]-L-amino acid (L-Val, L-Ile, L-Leu, L-Tyr or L-Phe; Amersham, Sweden), 1 mM NADPH, 0.1 M NaCl and 20 mM KPi pH 7.9. In assays containing ^14C-L-valine or ^14C-L-isoleucine, different amounts of unlabeled L- and D-amino acids (0-6 mM) are added. After incubation for 10 minutes at 30° C. the products formed are extracted into 60 μl ethyl acetate and separated on TLC sheets (Merck Kieselgel 60F254) using n-pentane/diethyl ether (50:50, v/v) or toluene/ethyl acetate (5:1, v/v) as eluents for aliphatic compounds and aromatic compounds, respectively. ^14C-labeled oximes are visualized and quantified using a STORM 840 phosphor imager (Molecular Dynamics, CA, USA). The activity of CYP79D1 is additionally measured in the presence of the inhibitors tetcyclasis, ABT and DPI under the same conditions as described above. For in vivo activity assays 200 μl P. pastoris cells are pelleted and resuspended in 100 μl 50 mM Tricine pH 7.9 and 0.35 μCi [U-^14C]-L-valine or L-isoleucine. After incubation for 30 minutes at 30° C. the cells are extracted with ethyl acetate and the products formed are analyzed as above.
CYP79D1 is reconstituted with sorghum NADPH-P450 oxidoreductase in the presence of high amounts of the lipid L-α-dioleyl phosphatidylcholine and 100 mM NaCl. […] To examine the effect of inhibitors on isolated CYP79D1, reconstitutions are performed in the presence of tetcyclasis, ABT and DPI using the same conditions as for cassava microsomes.

cassava microsomes = experiment: Metabolism of amino acids by cassava microsomes; type: biochemical; settings: amino acid as substrate
CYP79D2 = target: T1, CYP79D2 (Manihot esculenta, UniProt Q9M7B7); type: biochemical, cassava
T1 construct: made in house
T1 sequence (Q9M7B7 whole entry): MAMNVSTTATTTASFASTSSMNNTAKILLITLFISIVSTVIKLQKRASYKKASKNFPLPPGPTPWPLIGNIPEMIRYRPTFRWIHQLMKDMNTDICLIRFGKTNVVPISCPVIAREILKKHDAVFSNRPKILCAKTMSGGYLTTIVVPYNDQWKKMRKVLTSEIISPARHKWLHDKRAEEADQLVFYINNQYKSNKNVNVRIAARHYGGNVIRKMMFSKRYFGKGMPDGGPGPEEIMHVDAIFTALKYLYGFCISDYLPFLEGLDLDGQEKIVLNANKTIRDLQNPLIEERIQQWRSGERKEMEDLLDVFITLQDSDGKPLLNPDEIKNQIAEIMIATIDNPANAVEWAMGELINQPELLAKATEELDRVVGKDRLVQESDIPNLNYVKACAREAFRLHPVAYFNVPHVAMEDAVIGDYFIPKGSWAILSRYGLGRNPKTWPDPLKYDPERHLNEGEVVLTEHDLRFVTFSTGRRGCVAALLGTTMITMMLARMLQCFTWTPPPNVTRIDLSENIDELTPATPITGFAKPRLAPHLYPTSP
Procedure: Investigations into the substrate specificity of CYP79D1, CYP79D2, CYP79E1, CYP79E2, CYP79A2, CYP79B2, CYP79B5 and CYP79F1 are carried out in E. coli spheroplasts reconstituted with sorghum NADPH-cytochrome P450 oxidoreductase in the presence of high amounts of lipids. L-α-dioleyl phosphatidyl choline and L-α-dilauroyl phosphatidyl choline are preferred lipids for the reconstitution. […] Depending on the nature of the substrate, substrate specificity may also be determined using intact P. pastoris cells or intact E. coli cells.
The ability of a P450 monooxygenase to convert an aliphatic or aromatic amino acid or chain-elongated methionine homologue to the corresponding oxime can be tested in an assay (see also example 5) comprising
a) incubating a reaction mixture comprising the P450 monooxygenase of the present invention or spheroplasts of E.coli cells expressing said enzyme, the parent amino acid, NADPH, oxygen, NADPH-cytochrome P450 oxidoreductase and lipid at ambient temperature for a certain period of time which is between 2 min and 2 to 6 hours;
b) terminating the reaction for example by the addition of a denaturing compounds such as ethyl acetate; and
c) chemically identifying and quantifying the aldoxime produced.

CYP79B2 = target: T2, CYP79B2 (Arabidopsis thaliana, UniProt O81346); experiment: CYP79B2 activity in E. coli spheroplasts reconstituted with NADPH:cytochrome P450 reductase
T2 sequence (O81346 1-541): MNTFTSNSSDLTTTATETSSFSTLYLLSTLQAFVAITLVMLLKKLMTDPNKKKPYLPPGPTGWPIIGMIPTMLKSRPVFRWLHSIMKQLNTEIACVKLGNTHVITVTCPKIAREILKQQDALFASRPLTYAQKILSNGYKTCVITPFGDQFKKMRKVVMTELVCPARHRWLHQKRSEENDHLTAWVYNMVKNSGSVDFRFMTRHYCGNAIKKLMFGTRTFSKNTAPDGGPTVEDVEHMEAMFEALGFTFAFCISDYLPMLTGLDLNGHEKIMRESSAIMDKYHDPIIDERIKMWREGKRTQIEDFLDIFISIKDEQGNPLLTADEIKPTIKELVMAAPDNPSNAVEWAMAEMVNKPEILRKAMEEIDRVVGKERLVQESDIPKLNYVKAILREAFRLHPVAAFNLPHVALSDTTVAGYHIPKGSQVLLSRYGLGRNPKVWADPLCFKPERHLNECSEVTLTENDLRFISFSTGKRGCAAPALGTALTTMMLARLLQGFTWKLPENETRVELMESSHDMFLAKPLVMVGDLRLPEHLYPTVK
Procedure: The activity of CYP79B2 is measured by reconstituting spheroplasts from E. coli expressing CYP79B2 with purified NADPH:cytochrome P450 reductase from Sorghum bicolor (L.) Moench. […] The reaction is incubated at 34° C. for 30 minutes, extracted two times with ethyl acetate and the ethyl acetate phase is analyzed by TLC using toluen:ethyl acetate 5:1 as eluent. Radiolabelled bands are visualized on a Storm 840 phosphorimager (Molecular Dynamics) and quantified with ImageQuant analysis software (Molecular Dynamics). Substrate specificity is investigated by substituting the ^14C-labelled tryptophan with ^14C-labelled tyrosine or phenylalanine. GC-MS is employed to verify the structure of the compound produced from tryptophan by recombinant CYP79B2. A 450 μl reaction mixture as described above containing 2 mM unlabelled tryptophan is incubated at 34° C. for 2 hours. The reaction mixture is extracted twice with 300 μl CHCl3 and lyophilized until dryness. GC-MS is performed with an HP5890 Series II gas chromatograph coupled to a Jeol JMS-AX505W mass spectrometer. Splitless injection on an SGE column (BPX5, 25 mm×0.25 mm, 0.25 μm film thickness) and a head pressure of 100 kPa are used.
Single colonies are grown overnight at 37° C. in LB medium containing 100 μg/ml ampicillin. 1 ml of the overnight culture is used to inoculate 75 ml TB medium containing 100 μg/ml ampicillin, 75 μg/ml δ-aminolevulinic acid, 1 mM thiamine and 1 mM IPTG. The TB cultures are grown for 44 hours at 125 rpm and 28° C.

CYP79A2 = target: T3, CYP79A2 (Arabidopsis thaliana, UniProt Q9FLC8); experiment: CYP79A2 activity in E. coli spheroplasts reconstituted with NADPH:cytochrome P450 oxidoreductase
T3 sequence (Q9FLC8 7-529 limits assumed): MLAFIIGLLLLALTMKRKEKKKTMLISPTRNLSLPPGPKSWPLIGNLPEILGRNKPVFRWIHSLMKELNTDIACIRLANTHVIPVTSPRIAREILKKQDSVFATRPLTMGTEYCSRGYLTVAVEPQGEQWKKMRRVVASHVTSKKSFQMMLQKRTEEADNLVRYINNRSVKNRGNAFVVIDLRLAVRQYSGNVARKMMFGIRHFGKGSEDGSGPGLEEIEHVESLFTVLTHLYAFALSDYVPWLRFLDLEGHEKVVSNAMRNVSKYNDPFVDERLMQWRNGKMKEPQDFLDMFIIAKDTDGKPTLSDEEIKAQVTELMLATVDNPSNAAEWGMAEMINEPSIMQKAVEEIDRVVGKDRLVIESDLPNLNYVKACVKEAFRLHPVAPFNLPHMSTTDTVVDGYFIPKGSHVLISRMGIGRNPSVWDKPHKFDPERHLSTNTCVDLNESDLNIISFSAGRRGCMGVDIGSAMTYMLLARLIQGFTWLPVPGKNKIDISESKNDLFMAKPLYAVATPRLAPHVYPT

CYP79F1 = CYP79F1 (Arabidopsis thaliana, UniProt Q949U1, M2A); settings: E. coli C43(DE3) spheroplasts, GC-MS or TLC
CYP79F1, sequence (Q949U1 whole entry M2A): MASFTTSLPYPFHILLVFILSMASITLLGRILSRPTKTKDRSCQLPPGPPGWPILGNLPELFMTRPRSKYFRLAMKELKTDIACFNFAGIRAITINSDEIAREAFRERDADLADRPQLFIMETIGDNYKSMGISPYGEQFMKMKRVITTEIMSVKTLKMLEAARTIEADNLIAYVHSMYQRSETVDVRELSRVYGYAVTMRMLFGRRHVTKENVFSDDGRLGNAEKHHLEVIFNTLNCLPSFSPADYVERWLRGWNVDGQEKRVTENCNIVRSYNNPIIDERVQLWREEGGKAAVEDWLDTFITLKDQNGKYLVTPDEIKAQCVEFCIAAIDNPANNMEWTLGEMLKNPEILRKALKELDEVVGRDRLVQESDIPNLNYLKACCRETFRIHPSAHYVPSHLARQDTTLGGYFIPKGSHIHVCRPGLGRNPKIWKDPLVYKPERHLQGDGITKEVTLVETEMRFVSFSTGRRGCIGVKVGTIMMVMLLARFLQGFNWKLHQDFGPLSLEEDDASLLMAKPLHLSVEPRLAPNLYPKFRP
Procedure: In a typical enzyme assay, 5 μl spheroplasts and 4 μl NADPH:cytochrome P450 reductase (equivalent to 0.04 units defined as 1 μmol cytochrome c/min) are incubated with substrate in buffer containing 30 mM KPi, pH 7.5, 3 mM NADPH, 3 mM reduced glutathione, 0.042% Tween 80, 1 mg ml^−1 L-α-dilauroylphosphatidylcholine in a total volume of 30 μl. Reaction mixtures containing spheroplasts of E. coli C43(DE3) transformed with empty vector are used as controls in all assays. 3.3 μM L-[U-^14C]phenylalanine (453 mCi/mmol; Pharmacia), 3.7 μM L-[U-^14C]tyrosine (449 mCi/mmol; Pharmacia), 0.1 mM L-[methyl-^14C]methionine (56 mCi/mmol; Pharmacia), and 24 μM L-[side chain-3-^14C]tryptophan (56.5 mCi/mmol; NEN) are tested as potential substrates. After incubation at 28° C. for 1 hour, half of the reaction mixture is analyzed by TLC on Silica Gel 60 F254 sheets (Merck) using toluene/ethyl acetate 5:1 (v/v) as eluent. Radiolabelled bands are visualized and quantified using a STORM 840 phosphoimager (Pharmacia). For GC-MS analysis, 450 μl reaction mixture containing 3.3 mM L-methionine (Sigma), 3.3 mM DL-dihomomethionine or 3.3 mM DL-trihomomethionine, respectively, are incubated for 4 hours at 25° C. and extracted with a total volume of 600 μl CHCl3. The organic phase is collected, evaporated, and the residue is dissolved in 15 μl CHCl3 and analyzed by GC-MS. […] An SGE column (BPX5, 25 m×0.25 mm, 0.25 μm film thickness) is used (heat pressure 100 kPa, splitless injection). The oven temperature program is as follows: 80° C. for 3 minutes, 80° C. to 180° C. at 5° C. min^−1, 180° C. to 300° C. at 20° C. min^−1, and 300° C. for 10 min. The ion source is run in EI mode (70 eV) at 200° C. […] DL-dihomomethionine, DL-trihomomethionine, 5-methylthiopentanaldoxime and 6-methylthiohexanaldoxime are synthesized as described (Dawson et al, J. Biol. Chem. 268: 27154-27159, 1993) and authenticated by NMR spectroscopy.

CYP79D1, sequence (Q9M7B8 2-542): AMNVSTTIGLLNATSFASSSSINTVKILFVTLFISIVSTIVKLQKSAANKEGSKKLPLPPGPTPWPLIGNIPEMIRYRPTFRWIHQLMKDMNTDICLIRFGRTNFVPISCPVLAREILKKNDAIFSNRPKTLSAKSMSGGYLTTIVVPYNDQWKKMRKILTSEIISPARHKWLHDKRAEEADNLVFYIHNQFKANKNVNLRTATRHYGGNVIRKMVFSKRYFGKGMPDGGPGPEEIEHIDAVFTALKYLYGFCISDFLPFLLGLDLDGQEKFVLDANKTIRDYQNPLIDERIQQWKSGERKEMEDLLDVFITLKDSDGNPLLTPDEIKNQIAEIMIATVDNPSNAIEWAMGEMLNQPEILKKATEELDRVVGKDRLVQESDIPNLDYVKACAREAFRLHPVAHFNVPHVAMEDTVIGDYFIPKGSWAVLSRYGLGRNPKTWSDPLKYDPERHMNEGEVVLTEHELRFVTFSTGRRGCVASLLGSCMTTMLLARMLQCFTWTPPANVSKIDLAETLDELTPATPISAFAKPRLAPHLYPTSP

c1ccc2c(c1)[I+]c1ccccc1-2 [DPI, reference compound]
inhibition of CYP79D1 val-oxime formation (CYP79D1): completely inhibits

CC(C)[C@H](N)C(=O)O [L-valine]
metabolism / cyanide production by cassava microsomes (cassava microsomes): cyanide is produced
formation of the corresponding oxime / metabolism by CYP79D1 (CYP79D1): corresponding oximes are formed
conversion to the corresponding oxime by CYP79D2 (CYP79D2): found to convert

Clc1ccc(N2N=NC3C4CC(C5N=NC45)C32)cc1 (centres unmarked) [tetcyclasis, reference compound]
inhibition of CYP79D1 val-oxime formation (CYP79D1): inhibited

N[C@@H](Cc1ccccc1)C(=O)O [L-phenylalanine]
oxime production by CYP79B2 (CYP79B2; radiolabelled amino acid, TLC): No oxime producing activity is detected
production of the respective aldoxime by CYP79A2 (CYP79A2; TLC or GC-MS detection): produce two radiolabelled compounds which comigrate with the (E)- and (Z)-isomers of phenylacetaldoxime
formation of the corresponding aldoxime by CYP79F1 (CYP79F1): did not result in the formation of detectable amounts of the corresponding aldoximes
conversion to the corresponding oxime by CYP79D2 (CYP79D2): Neither L-Leucine, L-phenylalanine nor L-tyrosine are metabolized

NC(CCc1ccccc1)C(=O)O (racemic) [DL-homophenylalanine]
production of the respective aldoxime by CYP79A2 (CYP79A2): absence of detectable amounts of the homophenylalanine-derived aldoxime

CSCC[C@H](N)C(=O)O [L-methionine]
production of the respective aldoxime by CYP79A2 (CYP79A2): does not result in production of detectable amounts of the respective aldoximes
formation of the corresponding aldoxime by CYP79F1 (CYP79F1): did not result in the formation of detectable amounts of the corresponding aldoximes

CSCCCCCC(N)C(=O)O (racemic) [DL-trihomomethionine]
formation of the corresponding aldoxime by CYP79F1 (CYP79F1): two compounds with retention times and fragmentation pattern identical with those of the E/Z-isomers of the synthetic 6-methylthiopentanaldoxime are detected

CC[C@@H](C)[C@@H](N)C(=O)O [D-isoleucine]
metabolism / cyanide production by cassava microsomes (cassava microsomes): no metabolism is observed

CCCCCCCC/C=C\CCCCCCCC(=O)OCCOCC(OCCO)C1OCC(OCCO)C1OCCO (centres unmarked) [Tween 80]
increase in aldoxime production (CYP79A2; additive at final concentration 0.083% (v/v)): 1.5 fold

CSCCCCC(N)C(=O)O (racemic) [DL-dihomomethionine]
formation of the corresponding aldoxime by CYP79F1 (CYP79F1): two compounds, which are not present in the control reactions, are detected by GC-MS

CC(C)[C@@H](N)C(=O)O [D-valine]
metabolism / cyanide production by cassava microsomes (cassava microsomes): no metabolism is observed
binding to the active site of CYP79D1 (competition with 14C-L-valine) (CYP79D1): does not bind with high affinity
formation of the corresponding oxime / metabolism by CYP79D1 (CYP79D1): neither the cassava microsomes nor isolated CYP79D1 metabolize

CC[C@H](C)[C@H](N)C(=O)O [L-isoleucine]
metabolism / cyanide production by cassava microsomes (cassava microsomes): cyanide is produced
conversion rate relative to L-valine (CYP79D1): approximately 60%
formation of the corresponding oxime / metabolism by CYP79D1 (CYP79D1): corresponding oximes are formed
conversion to the corresponding oxime by CYP79D2 (CYP79D2): found to convert

N[C@@H](CCC(=O)N[C@@H](CS)C(=O)NCC(=O)O)C(=O)O [reduced glutathione]
increase of CYP79B2 activity (CYP79B2; addition of 1.5 mM): 1.8 fold
effect on aldoxime production (CYP79A2; additive at final concentration 3 mM): stimulates aldoxime production, but to a lesser extent

Oc1ccc(Cl)cc1Cl [2,4-dichlorophenol, reference compound]
inhibition of CYP79B2 activity (CYP79B2; 100 mM H2O2, 1 mM MnCl2 or 800 μM 2,4-dichlorophenol added to reconstitution assay): 72%
